Experimental data taken from patent US20040005311A1, “Dietary supplement compositions” (priority 2003, published 2004).

System: Alzheimer's disease-related / dementia-related symptoms
Test: Dietary supplementation of dementia subjects (case accounts by caregiver and physician)
Assay type: in vivo, human
Conditions: Subject #3; diet also supplemented with yellow corn, pineapple and tomato sauce products
Protocol: Prior to addressing the patient's dementia problem, a complete diagnosis of the subject was performed by a qualified physician.
The diets of these four subjects were also supplemented, to varying degrees, with yellow corn, pineapple and tomato sauce products.

SMILES: CC(C)=CCC/C(C)=C/C=C/C(C)=C/C=C/C(C)=C/C=C/C=C(C)/C=C/C=C(C)/C=C/C=C(\C)CCC=C(C)C [lycopene]
- symptoms (memory loss, anxiety, eating less): still exhibiting reduced symptoms
